From EP0816362A1, “THIAZOLE DERIVATIVES” (TAISHO PHARMACEUTICAL CO. LTD, priority 1995, dated 1996)

How the values were obtained:
[1] = cited from earlier work
[2] = biological target: T1, human D4.2 receptor (Homo sapiens, UniProt P21917, DEL265-296); test: Dopamine D4 receptor binding experiment ([3H]-spiperone)
T1 sequence (P21917 with tags, fused parts or gaps DEL265-296): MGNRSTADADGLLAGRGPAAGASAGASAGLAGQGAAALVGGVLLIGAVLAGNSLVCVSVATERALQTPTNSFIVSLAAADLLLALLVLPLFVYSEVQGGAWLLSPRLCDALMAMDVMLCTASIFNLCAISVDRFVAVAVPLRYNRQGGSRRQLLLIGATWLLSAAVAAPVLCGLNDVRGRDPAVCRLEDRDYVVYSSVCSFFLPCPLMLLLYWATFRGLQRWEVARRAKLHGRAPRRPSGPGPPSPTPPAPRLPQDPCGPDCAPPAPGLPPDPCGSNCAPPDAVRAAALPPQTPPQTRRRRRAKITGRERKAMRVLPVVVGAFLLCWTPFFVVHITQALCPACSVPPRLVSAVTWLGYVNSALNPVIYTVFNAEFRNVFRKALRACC
Protocol: As a receptor preparation, Chinese hamster ovary (CHO) cell membranes where human D4.2 receptor was expressed were used.
As [^3H]-labeled ligand, [^3H]-spiperone was used.
Human D4.2 receptor binding test: CHO cell membranes where human D4.2 receptor was expressed, [^3H]-spiperone (0.5 nM) and a test drug were reacted at 27°C for 2 hours in 50 mM Tris-HCl buffer, pH 7.4 containing 5 mM EDTA, 1.5 mM calcium chloride, 5 mM potassium chloride and 120 mM sodium chloride.
After the reaction, the sample was filtered under suction through a glass filter (GF/B), and the radioactivity of the filter paper was determined in a liquid scintillation spectrometer.
The binding of [^3H]-spiperone in the presence of 10 µM haloperidol was assumed to be non-specific binding, and the difference between the total binding and the non-specific binding was assumed to be specific binding.

[3] = inhibition of [3H]-spiperone binding, human D4.2 receptor
[4] = CHO cell membranes expressing human D4.2 receptor, [3H]-spiperone (0.5 nM), 27°C, 2 hours

Row | Structure (SMILES) | IC50 [2, 3] | IC50 [2, 4] | other results
1 | CN1CCN(C2=Nc3cc(Cl)ccc3Nc3ccccc32)CC1 [clozapine] |  |  | blood disorder ([1]; Summary and Clinical Data, Sandoz, Canada Inc. (1990), a case of death also reported): agranulocytosis; extrapyramidal disorder ([1]; clinical experiments, compared with dopamine D2 receptor antagonist): less extrapyramidal disorder
2 | Nc1nc(-c2ccc(F)cc2)c(C2CCN(CCCc3noc4cc(F)ccc34)C2)s1 (single isomer, unassigned) [Compound F-07] |  | 11.8 nM | 
3 | Nc1nc(-c2ccc(F)cc2)c(C2CCN(CCC=Cc3ccc(F)cc3)C2)s1 (stereo not drawn) [Compound C-02] |  | 81.1 nM | 
4 | Nc1nc(-c2ccc(F)cc2)c(C2CCN(CCCCc3noc4cc(F)ccc34)C2)s1 (stereo not drawn) [Compound E-06] |  | 97.7 nM | 
5 | Nc1nc(-c2ccc(F)cc2)c(C2CCN(CCCn3c(=O)ccc4cc(F)ccc43)C2)s1 (stereo not drawn) [Compound H-03] |  | 61.4 nM | 
6 | Nc1nc(-c2ccc(F)cc2)c(C2CCN(CCCC(=O)c3ccccc3)C2)s1 (racemic) [Compound D-06] |  | 38.5 nM | 
7 | Nc1nc(-c2ccc(F)cc2)c(C2CCN(CCC=C(c3ccc(F)cc3)c3ccc(F)cc3)C2)s1 (racemic) [Compound C-03] |  | 29.2 nM | 
8 | Nc1nc(-c2ccc(F)cc2)c(C2CCN(CCCN3C(=O)CCc4ccccc43)C2)s1 (stereo not drawn) [Compound H-02] |  | 81.1 nM | 
9 | Nc1nc(-c2ccc(F)cc2)c(C2CCN(CCCN3C(=O)Cc4ccccc43)C2)s1 (stereo not drawn) [Compound H-07] |  | 89 nM | 

More lines, main results first:

Row | IC50 [2, 3] | IC50 [2, 4] | Structure (SMILES) | other results
10 | 20.1 nM |  | O=C(c1ccccc1)C1CCN(CCc2scnc2-c2ccc(F)cc2)CC1 [Compound K-34] | 
11 | 2.36 nM |  | O=C(c1ccc(F)cc1)C1CCN(CCc2scnc2-c2ccc(F)cc2)CC1 [Compound K-33] | 
12 |  | 5.46 nM | Cc1nc(-c2ccc(F)cc2)c(CCN2CCC(C(=O)c3ccc(Cl)cc3)CC2)s1 [Compound K-20] | 
13 | 24.2 nM |  | Nc1nc(-c2ccc(F)cc2)c(CCN2CCC(=Cc3cccc(C(F)(F)F)c3)CC2)s1 [Compound L-13] | 
14 |  | 5.46 nM | Cc1ccc(C(=O)C2CCN(CCc3sc(C)nc3-c3ccc(F)cc3)CC2)cc1 [Compound K-25] | 
15 |  | 29.2 nM | Nc1nc(-c2ccc(F)cc2)c(CCN2CCC(C(=O)c3ccc(Cl)cc3)CC2)s1 [Compound K-08] | 
16 | 18.3 nM |  | COc1ccc(-c2nc(N)sc2CCN2CCC(=Cc3ccc(F)cc3)CC2)cc1 [Compound L-05] | 
17 | 16.7 nM |  | COc1ccc(C=C2CCN(CCc3sc(C)nc3-c3ccc(F)cc3)CC2)cc1 [Compound L-26] | 
18 |  | 5.99 nM | Cc1nc(-c2ccc(F)cc2)c(CCN2CCC(C(=O)c3ccccc3)CC2)s1 [Compound K-24] | 
19 | 7.22 nM |  | COc1ccc(-c2nc(C)sc2CCN2CCC(=Cc3ccc(F)cc3)CC2)cc1 [Compound L-20] | 
20 |  | 8.7 nM | Cc1nc(-c2ccc(F)cc2)c(CCN2CCC(C(=O)c3ccc(F)cc3)CC2)s1 [Compound K-19] | 
21 |  | 1.63 nM | COc1ccc(-c2nc(C)sc2CCN2CCC(C(=O)c3ccc(F)cc3)CC2)cc1 [Compound K-28] | 
22 | 16.7 nM |  | CC(=C1CCN(CCc2sc(C)nc2-c2ccc(F)cc2)CC1)c1ccc(F)cc1 [Compound L-31] | 
23 |  | 2.15 nM | Cc1nc(-c2ccccc2)c(CCN2CCC(C(=O)c3ccc(F)cc3)CC2)s1 [Compound K-30] | 
24 | 2.6 nM |  | Cc1nc(-c2ccc(F)cc2)c(CCN2CCC(=Cc3ccccc3)CC2)s1 [Compound L-30] | 
25 |  | 4.98 nM | Cc1nc(-c2ccc(Br)cc2)c(CCN2CCC(C(=O)c3ccc(F)cc3)CC2)s1 [Compound K-27] | 
26 | 5.99 nM |  | Cc1nc(-c2ccc(F)cc2)c(CCN2CCC(=Cc3ccccc3F)CC2)s1 [Compound L-28] | 
